Values after ≈ are worked out from the molar mass of the structure shown. Like-named read-outs stand apart in the source and are kept apart here.
What was measured:
[1] = system: Mouse leukemia L1210 cells; assay: Inhibitory activity on the growth of L1210 cells; type: cell-based; conditions: for IC50: L1210 cell growth
Description: Mouse leukemia L1210 cells were cultured in RPM11640 medium (Gifco) containing 10% horse serum (Gifco) at 37°C under 5% carbon dioxide gas so that the leukemia cells were contained in the amount of 5 x 10^4 cells/ml, and the cells were subjected to passage culture every two or three days to maintain the cell density of 5 x 10^4 cells/ml. The diluted sample solution (0.1 ml) was added to each well of a 24-well plate which contained 0.9 ml of the cultured L1210 cells, and the mixture was incubated at 37 ° C for 48 hours under 5% carbon dioxide gas. The sample solution mentioned above was prepared by dissolving a weighed test compound in dimethyl sulfoxide (DMSO) at the concentration of 100 mg/ml and then diluting the solution with distilled water so that the concentration became 10 mg/ml. The resulting aqueous solution was diluted with phosphate buffer solution to obtain a sample solution at a desired concentration. After incubation, the cell numbers in each well were counted and inhibitory activity on cell growth (ICso) was calculated.

[2] = system: Bacillus subtilis ATCC 6633; assay: Antibacterial activity, agar-dilution method (Mueller Hinton agar); type: cell-based
Description: (§1) Antibacterial activity of the tylosin derivative of the present invention was determined by the agar- dilution method using a Mueller Hinton agar medium (Difco). The results obtained are summarized in Table 1 in which minimum inhibitory concentrations (MICs, ug/ml) are shown. Hereinafter in the specification, Compound A (the compound described in Example 3) is defined as being 4"-O-[(S)-(+)-p-methoxymandeloyl]tylosin represented by the following formula: [drawing 3] wherein R is the same as that defined above; Compound B (the compound described in Example 2) is defined as being 4"-O-[(R)-(-)-p-methoxymandeloyl]tylosin represented by the following formula: [drawing 4] wherein R is the same as that defined above; XV represents 4"-O-[p-methoxyphenylacetyl]tylosin; RKM represents rokitamycin; and EM represents erythromycin.

[3] = system: Staphylococcus epidermidis ATCC 12228; assay: as above; type: cell-based; conditions: for minimum inhibitory concentrations (MICs): Staphylococcus epidermidis ATCC 12228; for MIC: Staphylococcus epidermidis
Description: as §1

[4] = system: Staphylococcus aureus 209P; assay: as above; type: cell-based; conditions: for MIC: read-out: minimum inhibitory concentrations (MICs)
Description: as §1

Escherichia coli K12 = assay: as above; type: cell-based; conditions: for MIC: read-out: minimum inhibitory concentrations (MICs)
Description: as §1

[5] = system: Staphylococcus aureus Smith; assay: as above; type: cell-based; conditions: for MIC: read-out: minimum inhibitory concentrations (MICs)
Description: as §1

mouse bone marrow cells = assay: Inhibition of the colony formation of mouse bone marrow cells; type: cell-based; conditions: for Number of colonies Average: 1.0 μg/ml (control average 75.3); for Number of colonies 1: count 1 (control 95); for Number of colonies 2: count 2 (control 66); for activity at 1 µg/mL: Mus musculus, Bone marrow cell
[6] = Stability test using mouse liver homogenate; type: in vitro ADME, ICR mouse; conditions: for Remaining unhydrolyzed substance (%): after being treated with liver homogenate for 60 minutes at 37 C
Description: A liver in collected from an ICR mouse was homogenized by a Potter homogenizer in five times volume of 0.1 M phosphate buffer solution (pH 7.2), and supernatant was obtained by centrifuging the homogenate at 3000 rpm for 10 minutes. To 2 ml of the supernatant obtained above, 2 ml of sample solution containing 500 µg/ml of test compound in 20% aqueous methanol and 1 ml of 0.1 M phosphate buffer solution were added, and the mixture was incubated at 37 ^0 c for 60 minutes and then 1 ml of the mixture was heated at 85 ° C for 3 minutes. The reaction mixture was adjusted to pH 9.0 by adding 1 N NaOH and extracted with 1 ml of ethyl acetate.

ML-resistant strain = assay: Antibacterial activity, agar-dilution method (Mueller Hinton agar); type: cell-based, Staphylococcus aureus; conditions: macrolide resistant strain; for MIC: Staphylococcus aureus, read-out: minimum inhibitory concentrations (MICs)
Description: as §1

[7] = 1.0 μg/ml, relative to control = 100
[8] = ATCC6633, Bacillus subtilis ATCC 6633, read-out: minimum inhibitory concentrations (MICs)
[9] = ATCC12228, Staphylococcus epidermidis ATCC 12228, read-out: minimum inhibitory concentrations (MICs)

Row | Molecule | Inhibitory activity on cell growth (%) ([1]; 1 μg/ml, 48 hours) | Inhibitory activity on cell growth (%) ([1]; 3 μg/ml, 48 hours) | Inhibitory activity on cell growth (%) ([1]; 10 μg/ml, 48 hours) | Inhibitory activity on cell growth (%) ([1]; 30 μg/ml, 48 hours) | Inhibitory activity on cell growth (%) ([1]; 100 μg/ml, 48 hours) | IC50 ([1]; 48 hours) [µg/mL] | minimum inhibitory concentrations (MICs) ([2]; Bacillus subtilis ATCC 6633) [µg/mL] | minimum inhibitory concentrations (MICs) [3] [µg/mL] | minimum inhibitory concentrations (MICs) ([4]; Staphylococcus aureus 209P) [µg/mL] | minimum inhibitory concentrations (MICs) (Escherichia coli K12) [µg/mL] | minimum inhibitory concentrations (MICs) ([5]; Staphylococcus aureus Smith) [µg/mL] | Number of colonies Average (mouse bone marrow cells) | Number of colonies 1 (mouse bone marrow cells; 1.0 μg/ml) | minimum inhibitory concentrations (MICs) (ML-resistant strain; 1st listed (Table 1 r5)) [µg/mL] | minimum inhibitory concentrations (MICs) (ML-resistant strain; 5th listed (Table 1 r9)) [µg/mL] | MIC (Escherichia coli K12) [µg/mL] | MIC (ML-resistant strain; 1st listed (Table 1 r5)) [µg/mL] | MIC (ML-resistant strain; 2nd listed (Table 1 r6)) [µg/mL] | MIC (ML-resistant strain; 3rd listed (Table 1 r7)) [µg/mL] | MIC (ML-resistant strain; 4th listed (Table 1 r8)) [µg/mL] | other results
1 | 4"-O-[p-methoxyphenylacetyl]tylosin [XV] | 12.22 | 31.18 | 82.87 | 90.45 | 93.68 | 5.01 | 0.39 | 0.78 | 0.20 | > 100 | 1.56 | 13.0 | 13 | 6.25 | 1.56 | – | – | – | – | – | Colony formation (%) (mouse bone marrow cells; [7]): 17.3%; Remaining unhydrolyzed substance (%) [6]: 92.8%; minimum inhibitory concentrations (MICs) (ML-resistant strain; 2nd listed (Table 1 r6)): 0.78 µg/mL; minimum inhibitory concentrations (MICs) (ML-resistant strain; 3rd listed (Table 1 r7)): 3.13 µg/mL; minimum inhibitory concentrations (MICs) (ML-resistant strain; 4th listed (Table 1 r8)): 0.39 µg/mL
2 | CCC1OC(=O)CC(O)C(C)C(OC2OC(C)C(OC3CC(C)(O)C(OC(=O)C(O)c4ccc(OC)cc4)C(C)O3)C(N(C)C)C2O)C(CC=O)CC(C)C(=O)C=CC(C)=CC1COC1OC(C)C(O)C(OC)C1OC [Compound A, 4"-O-[(S)-(+)-p-methoxymandeloyl]tylosin] | – | – | 5.62 | – | – | – | – | – | – | – | – | 31.0 | 32 | – | 6.25 (≈ 5.79 µM) | > 100 | 6.25 (≈ 5.79 µM) | 0.39 (≈ 0.361 µM) | 6.25 (≈ 5.79 µM) | < 0.2 | inhibition at 1 µg/mL ([1]; Mus musculus, L1210, 48 h, 1 μg/ml, read-out: Inhibitory activity on cell growth (%)): 0%; inhibition at 3 µg/mL ([1]; Mus musculus, L1210, 48 h, 3 μg/ml, read-out: Inhibitory activity on cell growth (%)): 0%; inhibition at 30 µg/mL ([1]; Mus musculus, L1210, 48 h, 30 μg/ml, read-out: Inhibitory activity on cell growth (%)): 47.8%; inhibition at 100 µg/mL ([1]; Mus musculus, L1210, 48 h, 100 μg/ml, read-out: Inhibitory activity on cell growth (%)): 88.8%; IC50 ([1]; Mus musculus, L1210, 48 h, read-out: IC50): 36.6 µg/mL (≈ 33.9 µM); MIC [2, 8]: 0.39 µg/mL (≈ 0.361 µM); MIC [3, 9]: 0.39 µg/mL (≈ 0.361 µM); MIC ([4]; Staphylococcus aureus 209P): 0.39 µg/mL (≈ 0.361 µM); MIC ([5]; Staphylococcus aureus Smith): 1.56 µg/mL (≈ 1.44 µM); Number of colonies 2 (mouse bone marrow cells; 1.0 μg/ml): 30; activity at 1 µg/mL (mouse bone marrow cells; [7]): 41.2%; remaining at 1 h ([6]; mouse, liver homogenate, pH 7.2, after being treated with liver homogenate for 60 minutes at 37 C, read-out: Remaining unhydrolyzed substance (%)): 97.8%
3 | CCC1OC(=O)CC(O)C(C)C(OC2OC(C)C(OC3CC(C)(O)C(OC(=O)C(O)c4ccc(OC)cc4)C(C)O3)C(N(C)C)C2O)C(CC=O)CC(C)C(=O)C=CC(C)=CC1COC1OC(C)C(O)C(OC)C1OC [Compound B, 4"-O-[(R)-(-)-p-methoxymandeloyl]tylosin] | 0 | 0 | 13.48 | 41.43 | 87.22 | 32.99 (≈ 30.5 µM) | 0.39 (≈ 0.361 µM) | 0.78 (≈ 0.722 µM) | 0.39 (≈ 0.361 µM) | > 100 | 1.56 (≈ 1.44 µM) | 29.5 | 34 | 6.25 (≈ 5.79 µM) | 1.56 (≈ 1.44 µM) | – | – | – | – | – | Number of colonies 2 (mouse bone marrow cells; 1.0 μg/ml): 25; Remaining unhydrolyzed substance (%) ([6]; 60 min): 100%; minimum inhibitory concentrations (MICs) (ML-resistant strain; 2nd listed (Table 1 r6)): 0.39 µg/mL (≈ 0.361 µM); minimum inhibitory concentrations (MICs) (ML-resistant strain; 3rd listed (Table 1 r7)): 3.13 µg/mL (≈ 2.9 µM); minimum inhibitory concentrations (MICs) (ML-resistant strain; 4th listed (Table 1 r8)): < 0.20 µg/mL
4 | CC[C@H]1OC(=O)[C@H](C)[C@@H](O[C@H]2C[C@@](C)(OC)[C@@H](O)[C@H](C)O2)[C@H](C)[C@@H](O[C@@H]2O[C@H](C)C[C@H](N(C)C)[C@H]2O)[C@](C)(O)C[C@@H](C)C(=O)[C@H](C)[C@@H](O)[C@]1(C)O [EM, erythromycin] | – | – | – | – | – | – | – | – | – | – | – | – | – | – | – | 50 (≈ 68.1 µM) | > 100 | > 100 | > 100 | > 100 | MIC ([2]; Bacillus subtilis, ATCC6633, read-out: minimum inhibitory concentrations (MICs)): 0.1 µg/mL (≈ 0.136 µM); MIC ([3]; ATCC12228, read-out: minimum inhibitory concentrations (MICs)): < 0.2 µg/mL; MIC ([4]; Staphylococcus aureus, 209P): 0.1 µg/mL (≈ 0.136 µM); MIC ([5]; Staphylococcus aureus): 0.2 µg/mL (≈ 0.273 µM); MIC (ML-resistant strain; 5th listed (Table 1 r9)): > 100 µg/mL
5 | CCCC(=O)O[C@H]1[C@H](C)O[C@@H](O[C@H]2[C@H](N(C)C)[C@@H](O)[C@H](O[C@H]3[C@@H](CC=O)C[C@@H](C)[C@@H](O)/C=C/C=C/C[C@@H](C)OC(=O)C[C@@H](O)[C@@H]3OC)O[C@@H]2C)C[C@@]1(C)OC(=O)CC [RKM, rokitamycin] | – | – | – | – | – | – | – | – | – | – | – | 19.0 | – | – | – | 100 (≈ 121 µM) | > 100 | > 100 | > 100 | < 0.2 | MIC [2, 8]: 0.1 µg/mL (≈ 0.121 µM); MIC [3, 9]: < 0.2 µg/mL; MIC ([4]; Staphylococcus aureus 209P): 0.2 µg/mL (≈ 0.242 µM); MIC ([5]; Staphylococcus aureus Smith): 0.39 µg/mL (≈ 0.471 µM); Number of colonies 3 (mouse bone marrow cells; 1.0 μg/ml, count 3 (control 65)): 19; activity at 1 µg/mL (mouse bone marrow cells; [7]): 25.2%; MIC (ML-resistant strain; 5th listed (Table 1 r9)): > 100 µg/mL
